Assay results: US12338256B2, “Aza-tetracyclic oxazepine compounds and uses thereof” (Genentech, Inc., priority 2022, dated 2025)

Tests used:
Format in all cases: cell-based
[1] = tested on: AsPC-1 (homozygous mutant KRAS G12D human pancreatic cell line); assay: KRAS 3D-Cell Proliferation Assay, AsPC-1 (Example 503); conditions: Homo sapiens, ASPC1, 168 h, AsPC-1 3D culture, 7 days, CellTiter-Glo 3D; read-out: Prolif AsPC-1 3D ATP IC50
Summary of the method: (§1)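 Cells grown in 3D in ultra-low attachment plates (RPMI-1640 with 10% FBS and 2 mM L-glutamine) received compound dilution series after overnight attachment, at 0.3% DMSO final, for 7 days at 37° C. ATP luminescence (CellTiter-Glo 3D) normalized to DMSO and 1 μM staurosporine; IC50 from 4-parameter Hill fit.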

[2] = tested on: PC-9 (KRAS wild type human lung adenocarcinoma cell line); assay: KRAS 3D-Cell Proliferation Assay, PC-9 (Example 503); conditions: 168 h, PC-9 3D culture, 7 days, CellTiter-Glo 3D, read-out: Prolif PC9 3D ATP IC50
Summary of the method: as §1

[3] = tested on: HPAC (homozygous mutant KRAS G12D human pancreatic cell line); assay: KRAS 3D-Cell Proliferation Assay, HPAC (Example 503); conditions: Homo sapiens, HPAC, 168 h, HPAC 3D culture, 7 days, CellTiter-Glo 3D; read-out: Prolif HPAC 3D ATP IC50
Summary of the method: as §1

[4] = tested on: H1975 (KRAS wild type human lung adenocarcinoma cell line); assay: KRAS 3D-Cell Proliferation Assay, H1975 (Example 503); conditions: Homo sapiens, NCI-H1975, 168 h, H1975 3D culture, 7 days, CellTiter-Glo 3D; read-out: Prolif H1975 3D ATP IC50
Summary of the method: as §1

Structure (SMILES)	IC50 [1] [nM]	IC50 [2] [nM]	IC50 [3] [nM]	IC50 [4] [nM]
C#Cc1cccc2cncc(-c3nc4c5c(nc(OC[C@@]67CCCN6C[C@H](F)C7)nc5c3F)N3C[C@H]5CC[C@H](N5)[C@H]3[C@H](C)O4)c12 [Compound 39, (5S,5aS,6S,9R)-2-(5-Ethynylisoquinolin-4-yl)-1-fluoro-12-(((2R,7aS)-2-fluorotetrahydro-1H-pyrrolizin-7a(5H)-yl)methoxy)-5-methyl-5a,6,7,8,9,10-hexahydro-5H-4-oxa-3,10a,11,13,14-pentaaza-6,9-methanonaphtho[1,8-ab]heptalene]	55.8	≥ 20000	35.8	3970
C#Cc1cccc2cncc(-c3nc4c5c(nc(OC[C@@]67CCCN6CC6(CC6(F)F)C7)nc5c3F)N3C[C@H]5CC[C@H](N5)[C@H]3[C@H](C)O4)c12 (stereo partly drawn) [Compound 40, (5S,5aS,6S,9R)-12-(((7a′S)-2,2-difluorodihydro-1′H,3′H-spiro[cyclopropane-1,2′-pyrrolizin]-7a′(5′H)-yl)methoxy)-2-(5-ethynylisoquinolin-4-yl)-1-fluoro-5-methyl-5a,6,7,8,9,10-hexahydro-5H-4-oxa-3,10a,11,13,14-pentaaza-6,9-methanonaphtho[1,8-ab]heptalene]	27.7	15700	36	20000
Cc1cc(N)nc(-c2nc3c4c(nc(OC[C@@]56CCCN5C[C@H](F)C6)nc4c2F)N2C[C@H]4CC[C@H](N4)[C@H]2[C@H](C)O3)c1C(F)(F)F [Compound 43, 6-((5S,5aS,6S,9R)-1-Fluoro-12-(((2R,7aS)-2-fluorotetrahydro-1H-pyrrolizin-7a(5H)-yl)methoxy)-5-methyl-5a,6,7,8,9,10-hexahydro-5H-4-oxa-3,10a,11,13,14-pentaaza-6,9-methanonaphtho[1,8-ab]heptalen-2-yl)-4-methyl-5-(trifluoromethyl)pyridin-2-amine]	43.4	≥ 20000	16.8	4290
Cc1cc(N)nc(-c2nc3c4c(nc(OC[C@@]56CCCN5CC5(CC5(F)F)C6)nc4c2F)N2C[C@H]4CC[C@H](N4)[C@H]2[C@H](C)O3)c1C(F)(F)F (stereo partly drawn) [Compound 47, 6-((5S,5aS,6S,9R)-12-(((7a′S)-2,2-difluorodihydro-1′H,3′H-spiro[cyclopropane-1,2′-pyrrolizin]-7a′(5′H)-yl)methoxy)-1-fluoro-5-methyl-5a,6,7,8,9,10-hexahydro-5H-4-oxa-3,10a,11,13,14-pentaaza[6,9]methanonaphtho[1,8-ab]heptalen-2-yl)-4-methyl-5-(trifluoromethyl)pyridin-2-amine]	3.97	8840	2.95	1530
C=C1CN2CCC[C@@]2(COc2nc3c4c(nc(-c5nc(N)cc(C)c5C(F)(F)F)c(F)c4n2)O[C@@H](C)[C@@H]2[C@@H]4CC[C@H](CN32)N4)C1 [Compound 48, 6-((5S,5aS,6S,9R)-1-fluoro-5-methyl-12-(((S)-2-methylenetetrahydro-1H-pyrrolizin-7a(5H)-yl)methoxy)-5a,6,7,8,9,10-hexahydro-5H-4-oxa-3,10a,11,13,14-pentaaza-6,9-methanonaphtho[1,8-ab]heptalen-2-yl)-4-methyl-5-(trifluoromethyl)pyridin-2-amine]	8.24	≥ 20000	5.52	5760
C#Cc1cccc2cc(O)cc(-c3nc4c5c(nc(OC[C@@]67CCCN6C[C@H](F)C7)nc5c3F)N3C[C@H]5CC[C@H](CN5CCCF)[C@H]3CO4)c12 [Compound 50, 5-Ethynyl-4-((5aS,6R,9R)-1-fluoro-14-(3-fluoropropyl)-12-(((2R,7aS)-2-fluorotetrahydro-1H-pyrrolizin-7a(5H)-yl)methoxy)-5a,6,7,8,9,10-hexahydro-5H-4-oxa-3,10a,11,13,14-pentaaza-6,9-ethanonaphtho[1,8-ab]heptalen-2-yl)naphthalen-2-ol]	13	4910	25.8	455
C#Cc1cccc2cc(O)cc(-c3nc4c5c(nc(OC[C@@]67CCCN6C[C@H](F)C7)nc5c3F)N3C[C@H]5CC[C@H](CN5CC5COC5)[C@H]3CO4)c12 [Compound 51, 5-ethynyl-4-((5aS,6R,9R)-1-fluoro-12-(((2R,7aS)-2-fluorotetrahydro-1H-pyrrolizin-7a(5H)-yl)methoxy)-14-(oxetan-3-ylmethyl)-5a,6,7,8,9,10-hexahydro-5H-4-oxa-3,10a,11,13,14-pentaaza-6,9-ethanonaphtho[1,8-ab]heptalen-2-yl)naphthalen-2-ol]	51.2	19500	73	1820
C#Cc1cccc2cc(O)cc(-c3nc4c5c(ncnc5c3F)N3C[C@H]5CC[C@H](N5)[C@H]3[C@H](C)O4)c12 [Compound 54, 5-ethynyl-4-((5S,5aS,6S,9R)-1-fluoro-5-methyl-5a,6,7,8,9,10-hexahydro-5H-4-oxa-3,10a,11,13,14-pentaaza-6,9-methanonaphtho[1,8-ab]heptalen-2-yl)naphthalen-2-ol]	2090	≥ 20000	3420	20000
C=C1CN2CCC[C@@]2(COc2nc3c4c(nc(-c5cc(N)c(F)c(C)c5C(F)(F)F)c(F)c4n2)O[C@@H](C)[C@@H]2[C@@H]4CC[C@H](CN32)N4)C1 [Compound 57, 2-Fluoro-5-((5S,5aS,6S,9R)-1-fluoro-5-methyl-12-(((S)-2-methylenetetrahydro-1H-pyrrolizin-7a(5H)-yl)methoxy)-5a,6,7,8,9,10-hexahydro-5H-4-oxa-3,10a,11,13,14-pentaaza-6,9-methanonaphtho[1,8-ab]heptalen-2-yl)-3-methyl-4-(trifluoromethyl) aniline]	0.361	3110	2.59	251
Cc1cc(N)cc(-c2nc3c4c(nc(OC[C@]56CCN5CC(F)(F)C6)nc4c2F)N2C[C@H]4CC[C@H](N4)[C@H]2[C@H](C)O3)c1C(F)(F)F [Compound 60, 3-((5S,5aS,6S,9R)-12-(((R)-3,3-Difluoro-1-azabicyclo[3.2.0]heptan-5-yl)methoxy)-1-fluoro-5-methyl-5a,6,7,8,9,10-hexahydro-5H-4-oxa-3,10a,11,13,14-pentaaza-6,9-methanonaphtho[1,8-ab]heptalen-2-yl)-5-methyl-4-(trifluoromethyl)aniline]	3.48	16500	2.59	720
Cc1c(F)c(N)cc(-c2nc3c4c(nc(OC[C@@H]5CC(F)(F)CN5C)nc4c2F)N2C[C@H]4CC[C@H](N4)[C@H]2[C@H](C)O3)c1C(F)(F)F [Compound 65, 5-((5S,5aS,6S,9R)-12-(((S)-4,4-Difluoro-1-methylpyrrolidin-2-yl)methoxy)-1-fluoro-5-methyl-5a,6,7,8,9,10-hexahydro-5H-4-oxa-3,10a,11,13,14-pentaaza-6,9-methanonaphtho[1,8-ab]heptalen-2-yl)-2-fluoro-3-methyl-4-(trifluoromethyl)aniline]	64.3	7530	19.6	7960
Cc1c(F)c(N)cc(-c2nc3c4c(nc(OC[C@H]5CC(F)(F)CN5C)nc4c2F)N2C[C@H]4CC[C@H](N4)[C@H]2[C@H](C)O3)c1C(F)(F)F [Compound 66, 5-((5S,5aS,6S,9R)-12-(((R)-4,4-difluoro-1-methylpyrrolidin-2-yl)methoxy)-1-fluoro-5-methyl-5a,6,7,8,9,10-hexahydro-5H-4-oxa-3,10a,11,13,14-pentaaza-6,9-methanonaphtho[1,8-ab]heptalen-2-yl)-2-fluoro-3-methyl-4-(trifluoromethyl)aniline]	41.4	4780	27.6	7150
Cc1c(F)c(N)cc(-c2nc3c4c(nc(OC[C@@]56CCCN5C[C@H](F)C6)nc4c2F)N2C[C@H]4CC[C@H](N4)[C@H]2[C@H](C)O3)c1Cl [Compound 76, 4-Chloro-2-fluoro-5-((5S,5aS,6S,9R)-1-fluoro-12-(((2R,7aS)-2-fluorotetrahydro-1H-pyrrolizin-7a(5H)-yl)methoxy)-5-methyl-5a,6,7,8,9,10-hexahydro-5H-4-oxa-3,10a,11,13,14-pentaaza-6,9-methanonaphtho[1,8-ab]heptalen-2-yl)-3-methylaniline]	14.1	5710	4.62	248
C=C1CN2CCC[C@@]2(COc2nc3c4c(nc(-c5cc(O)cc6cccc(CC)c56)c(F)c4n2)O[C@@H](C)[C@@H]2[C@@H]4CC[C@H](CN32)N4)C1 [Compound 80, 5-Ethyl-4-((5S,5aS,6S,9R)-1-fluoro-5-methyl-12-(((S)-2-methylenetetrahydro-1H-pyrrolizin-7a(5H)-yl)methoxy)-5a,6,7,8,9,10-hexahydro-5H-4-oxa-3,10a,11,13,14-pentaaza-6,9-methanonaphtho[1,8-ab]heptalen-2-yl)naphthalen-2-ol]	5.08	4050	2.76	924
